± gives the expanded uncertainty stated by the source.

Assay in the first data set: not given
The conditions noted are these: Crystal; DTA.
Consider `COc1cccc(C=O)c1O` [2-hydroxy-3-methoxybenzaldehyde], for which the Normal melting temperature amounted to 40.5 ± 0.5 °C.

As to `CCOc1cc(C=O)ccc1O` [3-ethoxy-4-hydroxybenzaldehyde], the Normal melting temperature amounted to 76.7 ± 0.5 °C.

As for `CCOc1cccc(C=O)c1O` [3-ethoxysalicylaldehyde], the Normal melting temperature was 64.1 ± 0.5 °C.

As for `COc1cc(C=O)ccc1O` [vanillin], the Normal melting temperature turned out to be 82.4 ± 0.5 °C.

Another data set in a line: Molar enthalpy of transition or fusion. Particulars: Crystal; DSC.
In the case of `COc1cccc(C=O)c1O` [2-hydroxy-3-methoxybenzaldehyde], the “Molar enthalpy of transition or fusion” value is 4.94 ± 0.148 kcal/mol.

On to `CCOc1cc(C=O)ccc1O` [3-ethoxy-4-hydroxybenzaldehyde], for which the “Molar enthalpy of transition or fusion” value turned out to be 6.06 ± 0.174 kcal/mol.

Consider `CCOc1cccc(C=O)c1O` [3-ethoxysalicylaldehyde], for which the “Molar enthalpy of transition or fusion” value was determined as 6.08 ± 0.179 kcal/mol.

As for `COc1cc(C=O)ccc1O` [vanillin], the “Molar enthalpy of transition or fusion” value worked out at 5.73 ± 0.167 kcal/mol.
